From ChEMBL document CHEMBL1159136, “Dipeptide mimetics can substitute for the receptor activation domain resulting in highly potent analogues of hPTH(136)” (Bioorg Med Chem Lett, 1996)
Square brackets hold non-standard residues; d marks the D form. Peptide text beside a SMILES is read from it. * marks the point of attachment. X4 = CC(=O)N(CC(=O)*)C(=O)[C@H](C)N; NMeV = CN[C@H](C(=O)O)C(C)C; N(iPr)Gly = CC(C)NCC(=O)O

What was measured:
OK-1 [1] = assay: Accumulation of cyclic AMP in OK-1 cells.; type: functional, cell-based, opossum; conditions: opossum, OK-1
UMR106-06 [2] = assay: Compound was evaluated for the intrinsic activity for accumulation of cyclic AMP in UMR10606 (rat osteosarcoma) cells.; type: functional
OK-1 [3] = assay: Compound was evaluated for the intrinsic activity for accumulation of cyclic AMP in OK-1 cells.; type: functional, opossum
UMR106-06 [4] = assay: Compound was evaluated for the accumulation of cyclic AMP in UMR10606 (rat osteosarcoma) cells.; type: functional, cell-based; conditions: Rattus norvegicus, UMR106-06
OK-1 [5] = assay: Displacement of [125I]-chick PTHrP-(1-36)-NH2 from opossum (OK-1) kidney cells; type: functional

| EC50 (OK-1 [1]) [nM] | EC50 (UMR106-06 [4]) [nM] | SMILES | Intrinsic activity (UMR106-06 [2]) | Intrinsic activity (OK-1 [3]) | pKD (OK-1 [5]) |
| --- | --- | --- | --- | --- | --- |
| 3.5 | 4.4 | CC[C@H](C)[C@H](NC(=O)[C@H](CCC(=O)O)NC(=O)[C@H](CO)NC(=O)[C@H](C(C)C)N(C)C(=O)[C@H](C)N)C(=O)N[C@@H](CCC(N)=O)C(=O)N[C@@H](CC(C)C)C(=O)N[C@@H](CCSC)C(=O)N[C@@H](Cc1c[nH]cn1)C(=O)N[C@@H](CC(N)=O)C(=O)N[C@@H](CC(C)C)C(=O)NCC(=O)N[C@@H](CCCCN)C(=O)N[C@@H](Cc1c[nH]cn1)C(=O)N[C@@H](CC(C)C)C(=O)N[C@@H](CC(N)=O)C(=O)N[C@@H](CO)C(=O)N[C@@H](CCSC)C(=O)N[C@@H](CCC(=O)O)C(=O)N[C@@H](CCCN=C(N)N)C(=O)N[C@H](C(=O)N[C@@H](CCC(=O)O)C(=O)N[C@@H](Cc1c[nH]c2ccccc12)C(=O)N[C@@H](CC(C)C)C(=O)N[C@@H](CCCN=C(N)N)C(=O)N[C@@H](CCCCN)C(=O)N[C@@H](CCCCN)C(=O)N[C@@H](CC(C)C)C(=O)N[C@@H](CCC(N)=O)C(=O)N[C@@H](CC(=O)O)C(=O)N[C@H](C(=O)N[C@@H](Cc1c[nH]cn1)C(=O)N[C@@H](CC(N)=O)C(=O)N[C@@H](Cc1ccccc1)C(=O)N[C@H](C(=O)N[C@@H](C)C(N)=O)C(C)C)C(C)C)C(C)C (H-A[NMeV]SEIQLMHNLGKHLNSMERVEWLRKKLQDVHNFVA-NH2) | 0.9 | 1 | 8.4 |
| 117 | 958 | CC[C@H](C)[C@H](NC(=O)[C@H](CCC(=O)O)NC(=O)[C@H](CO)NC(=O)CN(C(C)=O)C(=O)[C@H](C)N)C(=O)N[C@@H](CCC(N)=O)C(=O)N[C@@H](CC(C)C)C(=O)N[C@@H](CCSC)C(=O)N[C@@H](Cc1c[nH]cn1)C(=O)N[C@@H](CC(N)=O)C(=O)N[C@@H](CC(C)C)C(=O)NCC(=O)N[C@@H](CCCCN)C(=O)N[C@@H](Cc1c[nH]cn1)C(=O)N[C@@H](CC(C)C)C(=O)N[C@@H](CC(N)=O)C(=O)N[C@@H](CO)C(=O)N[C@@H](CCSC)C(=O)N[C@@H](CCC(=O)O)C(=O)N[C@@H](CCCN=C(N)N)C(=O)N[C@H](C(=O)N[C@@H](CCC(=O)O)C(=O)N[C@@H](Cc1c[nH]c2ccccc12)C(=O)N[C@@H](CC(C)C)C(=O)N[C@@H](CCCN=C(N)N)C(=O)N[C@@H](CCCCN)C(=O)N[C@@H](CCCCN)C(=O)N[C@@H](CC(C)C)C(=O)N[C@@H](CCC(N)=O)C(=O)N[C@@H](CC(=O)O)C(=O)N[C@H](C(=O)N[C@@H](Cc1c[nH]cn1)C(=O)N[C@@H](CC(N)=O)C(=O)N[C@@H](Cc1ccccc1)C(=O)N[C@H](C(=O)N[C@@H](C)C(N)=O)C(C)C)C(C)C)C(C)C (X4-SEIQLMHNLGKHLNSMERVEWLRKKLQDVHNFVA-NH2) | 0.8 | 0.2 | 7.1 |
| 97.2 | 30 | CC[C@H](C)[C@H](NC(=O)[C@H](CCC(=O)O)NC(=O)[C@H](CO)NC(=O)CN(C(=O)[C@H](C)N)C(C)C)C(=O)N[C@@H](CCC(N)=O)C(=O)N[C@@H](CC(C)C)C(=O)N[C@@H](CCSC)C(=O)N[C@@H](Cc1c[nH]cn1)C(=O)N[C@@H](CC(N)=O)C(=O)N[C@@H](CC(C)C)C(=O)NCC(=O)N[C@@H](CCCCN)C(=O)N[C@@H](Cc1c[nH]cn1)C(=O)N[C@@H](CC(C)C)C(=O)N[C@@H](CC(N)=O)C(=O)N[C@@H](CO)C(=O)N[C@@H](CCSC)C(=O)N[C@@H](CCC(=O)O)C(=O)N[C@@H](CCCN=C(N)N)C(=O)N[C@H](C(=O)N[C@@H](CCC(=O)O)C(=O)N[C@@H](Cc1c[nH]c2ccccc12)C(=O)N[C@@H](CC(C)C)C(=O)N[C@@H](CCCN=C(N)N)C(=O)N[C@@H](CCCCN)C(=O)N[C@@H](CCCCN)C(=O)N[C@@H](CC(C)C)C(=O)N[C@@H](CCC(N)=O)C(=O)N[C@@H](CC(=O)O)C(=O)N[C@H](C(=O)N[C@@H](Cc1c[nH]cn1)C(=O)N[C@@H](CC(N)=O)C(=O)N[C@@H](Cc1ccccc1)C(=O)N[C@H](C(=O)N[C@@H](C)C(N)=O)C(C)C)C(C)C)C(C)C (H-A[N(iPr)Gly]SEIQLMHNLGKHLNSMERVEWLRKKLQDVHNFVA-NH2) | 0.05 | 0.5 | 7.4 |
